Read-outs that look alike come from different tables or passages of the source.
Experiments:
5-HT1A receptor = target: T1, 5-HT1A receptor (Rattus norvegicus, UniProt P19327); test: 5HT1A receptor binding assay (3H-8-OH-DPAT, rat brain striatum membrane); settings: for inhibition at 10 µM: test compound final concentration 10^−5 M
T1 sequence (P19327 1-422): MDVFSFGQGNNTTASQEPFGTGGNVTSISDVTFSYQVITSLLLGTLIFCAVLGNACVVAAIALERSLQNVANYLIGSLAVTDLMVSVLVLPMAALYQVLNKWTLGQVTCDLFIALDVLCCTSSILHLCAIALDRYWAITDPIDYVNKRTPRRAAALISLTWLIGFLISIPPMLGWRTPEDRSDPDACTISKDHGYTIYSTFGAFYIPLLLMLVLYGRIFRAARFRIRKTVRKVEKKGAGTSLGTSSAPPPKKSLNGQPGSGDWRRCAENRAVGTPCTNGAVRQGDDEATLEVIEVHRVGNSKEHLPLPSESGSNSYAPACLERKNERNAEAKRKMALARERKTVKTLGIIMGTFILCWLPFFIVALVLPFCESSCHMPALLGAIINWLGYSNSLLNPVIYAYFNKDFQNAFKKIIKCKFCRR
Procedure: Incubation at 37° C. was conducted for 10 min, the weight of the tubes were adjusted using a balance after incubation. […] Centrifugation was conducted and repeated 3 times.

5-HT2A receptor = 5-HT2A receptor (Rattus norvegicus, UniProt P14842); test: 5HT2A receptor binding assay ([3H]-Ketanserin, rat brain striatum membrane); settings: for inhibition at 10 µM: read-out: 5HT2A inhibition %
Chain of 5-HT2A receptor (P14842 whole entry): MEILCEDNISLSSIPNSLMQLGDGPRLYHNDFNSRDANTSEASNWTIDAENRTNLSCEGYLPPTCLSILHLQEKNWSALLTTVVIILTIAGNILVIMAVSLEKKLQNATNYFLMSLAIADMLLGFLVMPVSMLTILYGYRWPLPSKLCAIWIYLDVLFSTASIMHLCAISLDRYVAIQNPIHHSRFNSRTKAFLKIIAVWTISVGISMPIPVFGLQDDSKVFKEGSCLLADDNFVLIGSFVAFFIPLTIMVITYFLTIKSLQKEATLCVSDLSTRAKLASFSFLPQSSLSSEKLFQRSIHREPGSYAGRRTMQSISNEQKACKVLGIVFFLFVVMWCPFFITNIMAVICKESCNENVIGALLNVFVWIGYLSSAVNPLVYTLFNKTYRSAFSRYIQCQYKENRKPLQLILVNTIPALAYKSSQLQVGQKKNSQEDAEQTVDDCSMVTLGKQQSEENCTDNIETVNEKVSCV

D3 receptor = target: T2, D3 receptor (Homo sapiens, UniProt P35462); test: D3 receptor assay ([3H]-Spiperone, HEK-293 cells); assay type: binding
T2 construct: expressed in transfected cells; host or cells: HEK-293
T2 sequence (P35462 whole entry): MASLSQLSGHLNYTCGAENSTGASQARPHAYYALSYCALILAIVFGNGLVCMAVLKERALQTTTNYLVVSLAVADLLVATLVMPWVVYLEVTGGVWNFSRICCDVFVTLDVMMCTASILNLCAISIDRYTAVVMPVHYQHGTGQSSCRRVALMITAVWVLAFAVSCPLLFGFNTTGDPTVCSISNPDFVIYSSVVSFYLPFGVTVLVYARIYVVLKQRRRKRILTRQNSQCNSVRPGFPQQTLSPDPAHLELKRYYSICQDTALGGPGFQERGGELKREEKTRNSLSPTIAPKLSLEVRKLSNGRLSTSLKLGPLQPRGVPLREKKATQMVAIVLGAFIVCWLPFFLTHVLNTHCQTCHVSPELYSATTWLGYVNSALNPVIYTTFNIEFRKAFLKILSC
Procedure: After the cells were centrifuged at 1000 rpm for 5 min, the supernatant was discarded, and the cell pellet was collected and stored in a −20° C. fridge for reservation. It was re-suspended with Tris-Cl (pH 7.4) in the assay.
Tris was divided into aliquots by Genetimes Technology Inc.
Competitive binding test for receptors: 20 μl of each of the test compounds and 20 μl of the radioactive ligand together with 160 μl of the receptor proteins were added into the reaction tubes, and the final concentrations of the test compound and the positive drug were all 10 μmol/L. After 50 min of incubation in 30° C. water bath, the tubes were immediately moved to ice bath to terminate the reactions. GF/C glass fiber filter papers were used for rapid sucking filtration on a Millipore cell sample collector, elution buffer (50 mM Tris-HCl, PH 7.4) was applied for 3 ml×3 times, and microwave was applied for 4-5 min for drying. The filter papers were moved into 0.5 ml centrifuge tubes, and 500 μl of lipid-soluble scintillation solution was added. The tubes were allowed to stand still for over 30 min in dark, and the intensities of radioactivity were measured by a counter.

5-HT2C receptor = 5-HT2C receptor (Rattus norvegicus, UniProt P08909); test: 5HT2C receptor binding assay ([3H]-mesulergine, rat brain striatum membrane)
Chain of 5-HT2C receptor (P08909 33-460): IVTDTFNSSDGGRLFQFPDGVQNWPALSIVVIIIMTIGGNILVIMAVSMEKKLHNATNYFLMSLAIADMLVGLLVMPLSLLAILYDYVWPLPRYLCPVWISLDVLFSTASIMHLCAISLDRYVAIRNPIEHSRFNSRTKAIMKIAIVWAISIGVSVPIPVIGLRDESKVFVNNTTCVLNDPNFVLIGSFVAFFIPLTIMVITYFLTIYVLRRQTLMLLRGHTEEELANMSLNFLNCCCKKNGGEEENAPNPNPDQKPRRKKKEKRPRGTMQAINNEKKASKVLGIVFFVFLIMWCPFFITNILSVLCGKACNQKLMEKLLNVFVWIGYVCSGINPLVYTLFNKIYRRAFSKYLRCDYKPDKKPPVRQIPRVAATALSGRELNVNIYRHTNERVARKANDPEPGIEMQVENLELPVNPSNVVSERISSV

mice of Kunming breed = test: MK-801 induced high activity in mice; assay type: in vivo; settings: for ED50: Mus musculus, 1.5 h, po, MK-801 0.1 mg/kg ip, spontaneous activity in 90 min; for improvement of MK-801 induced high activity (in words): compared to the model group
Procedure: Healthy mice of Kunming breed (with half male and half female, (20±2)g) were provided by Qinglongshan Animal Cultivation Center, Nanjing.
Subsequently, the spontaneous activities of the mice of each group in 90 min were measured.

KM mice [1] = test: Apomorphine induced clambering assay of mice; assay type: in vivo; settings: for ED50: Mus musculus, po, apomorphine 1 mg/kg sc
Procedure: Healthy KM mice (male, with body weight of 18-22 g) were provided by Qinglongshan Animal Cultivation Center, Nanjing.
Test positive drugs: haloperidol, clozapine, risperidone, olanzapine, aripiprazole, ziprasidone, quetiapine.
Apomorphine provided by Sigma Company was dissolved in 0.9% NaCl (containing 0.1% vitamin C) before use, and was freshly formulated before use.
Corresponding solvent double-distilled water was administered intragastrically to the negative control group and the model group, corresponding positive drugs were administered intragastrically to the positive drug groups (a small amount of acetic acid was first added and then double-distilled water was added when dissolving), and corresponding dosages of compounds were administered intragastrically to the compound groups for each dosage, with the volume for intragastric administration as 0.1 ml/10 g. 1 hour after the intragastric administration, apomorphine was subcutaneously injected (1 mg/kg), with the volume as 0.1 ml/10 g. After the injection of apomorphine, the mice were immediately put into the clambering cages. After 5 min of adaptation, the behaviors of the mice at 10-11, 20-21, and 30-31 min after the injection of apomorphine were observed and scored. Scoring criteria: 4 paws on the floor was scored as 0; 2 forepaws on the cage was scored as 1; and 4 paws on the cage was scored as 2.

Catalepsy assay = assay type: in vivo; settings: both sexes, Kunming (KM), mouse, in vivo; mice, po
Procedure: (§1) Healthy mice of Kunming breed (with half male and half female, (22±2)g) were provided by Qinglongshan Animal Cultivation Center, Nanjing.
(§2) Instruments: self-made bar-grabbing apparatus: stainless steel bar in mice box, which was 0.3 cm in diameter and […].
(§3) Corresponding solvent double-distilled water was administered intragastrically to the negative control group and the model group, corresponding positive drugs were administered intragastrically to the positive drug groups (a small amount of acetic acid was first added and then double-distilled water was added when dissolving), and corresponding dosages of compounds were administered intragastrically to the compound groups for each dosage, with the volume for intragastric administration as 0.1 ml/10 g. At 30 min, 60 min, 90 min after the intragastric administration, the two forepaws of the mice were gently placed on the bars (which were 20 cm in length, 0.3 cm in diameter, and 5.5 cm above the bench), and the hindpaws of the animals were placed on the bottom of the box. The durations for the mice to maintain the posture with the two forepaws on the bars were recorded, and 30 s of spasticity without moving was considered as the positive response. In the case the forepaws of the mice were not put down persistently, the observation was terminated at 60 s. The numbers of animals with positive response in each of the compound dosage groups were counted.

in vivo = settings: both, mouse, po
Procedure: (§4) KM mice (half male and half female) were randomly divided into several groups (with 2-5 mice in each group), which were respectively the 2000 mg/kg groups for each compound, and the solvent group. 0.2 ml/10 g were administered intragastrically. The death of the animals in 3 days were observed. (In the case 3 or more animals survived in 3 days without notable abnormity in their life states, the observation was continued until the assay was completed in 7 days. In the case 3 or more animals died in 3 days, the median lethal dose method was used to determine the LD50).
(§5) 0.2 ml/10 g were administered intragastrically, and the death of the animals in 1-3 days were observed.

dopamine D2 receptor = dopamine D2 receptor (Rattus norvegicus, UniProt P61169); test: D2 receptor binding assay (3H-Spiperone, rat brain striatum membrane); settings: for inhibition at 10 µM: read-out: D2 inhibition %
Chain of dopamine D2 receptor (P61169 whole entry): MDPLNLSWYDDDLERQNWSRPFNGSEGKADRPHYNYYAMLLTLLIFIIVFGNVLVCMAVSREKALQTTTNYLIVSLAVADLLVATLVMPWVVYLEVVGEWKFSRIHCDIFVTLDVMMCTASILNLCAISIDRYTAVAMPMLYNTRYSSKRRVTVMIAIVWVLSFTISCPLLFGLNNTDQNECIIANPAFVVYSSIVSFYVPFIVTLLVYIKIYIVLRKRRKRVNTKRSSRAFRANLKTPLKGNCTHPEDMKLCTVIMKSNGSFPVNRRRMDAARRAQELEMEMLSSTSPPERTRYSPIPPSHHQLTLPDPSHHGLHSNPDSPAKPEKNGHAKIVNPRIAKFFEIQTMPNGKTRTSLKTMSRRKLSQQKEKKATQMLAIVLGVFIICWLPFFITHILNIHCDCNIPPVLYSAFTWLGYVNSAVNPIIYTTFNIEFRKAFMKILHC
Procedure: Rats were sacrificed by cervical dislocation on ice. Brain striatum was rapidly taken, and 2 brain striatums were combined into a centrifuge tube, to which 3 ml of buffer (0.05 M Tris-HCl buffer, containing NaCl 120 mM, KCl 5 mM, MgCl2 1 mM, CaCl2 1 mM) was added, homogenization was conducted for 3-4 s at level 4 for four times, and then 5 ml of buffer was then added. The weight of the homogenized tubes were adjusted using a balance, and centrifugation was conducted at 12000 r, 4° C. for 20 min. The supernatant was discarded, and 3 ml of buffer was added (0.05 M Tris-HCl buffer, containing NaCl 120 mM, KCl 5 mM, MgCl2 1 mM, CaCl2 1 mM). Vortex mixer was used for blending, and then 5 ml of buffer was added (0.05 M Tris-HCl buffer, containing NaCl 120 mM, KCl 5 mM, MgCl2 1 mM, CaCl2 1 mM). Centrifugation was conducted (repeated 3 times). After the centrifugations, the supernatant was discarded, and the pellets were stored at −80° C. for future use.
Beckman LS-6500 Multi-function Liquid Scintillation Counter was used.
(1) The prepared membrane was first applied with appropriate amount of homogenized liquid, and homogenizer was used for evenly dispersing. 15 tubes were mixed into a 100 ml container, and appropriate amount of homogenized liquid was added to give 50 ml of membrane suspension, which was reserved for future use.
(2) 100 μL of membrane preparation and 100 μL of buffer were added into each reaction tube.
(3) 100 μL of homogenized liquid was added into the total binding tube (TB), 100 μL of Butaclamol (final concentration 10^−5 M) was added into the non-specific binding tube (NB), and 100 μL of the test compound (final concentration 10^−5 M) was added into the specific binding tube (SB) for each compound.
(5) Each of the reaction tubes was incubated at 37° C. for 20 min. After the reaction was completed, the bound ligands were rapidly filtered under reduced pressure, and the ice-chilled assay buffer was used for adequate washing. The filter was taken out and put into a 3 ml scintillation vial, and 2 ml of toluene scintillation solution was added and blended.
(6) The scintillation vials were put into Liquid Scintillation Counter for counting. Inhibitory rate(1%)=(Total binding tube cpm−compound cpm)/(Total binding tube cpm−non-specific binding tube cpm)×100%
Each assay for the compounds was conducted in duplicate.

KM mice [2] = test: Catalepsy assay; assay type: in vivo
Procedure: as §1, §2, §3

KM mice [3] = settings: both, mouse, in vivo
Procedure: as §4, §5

[4] = in vitro receptor binding assay
[5] = 3H-8-OH-DPAT, rat brain striatum membrane

Compound | ED50 (mice of Kunming breed) | ED50 (KM mice [1]) | ED50 (Catalepsy assay) | LD50 (in vivo) | inhibition at 10 µM (dopamine D2 receptor) | inhibition at 10 µM (5-HT1A receptor; [5]) | improvement of MK-801 induced high activity (in words) (mice of Kunming breed) | improvement of apomorphine induced clambering symptoms (in words) (KM mice [1]) | EPS at effective dosage (in words) (KM mice [2]) | other results
Cc1cc(=O)oc2cc(OCCCN3CCC(c4noc5cc(F)ccc45)CC3)ccc12 [Compound 7, 7-(3-(4-(3-(6-fluoro-benzisoxazole)-1-piperidyl)-n-propoxy))-4-methyl-2H-benzopyran-2-one] | 0.27 mg/kg | 0.15 mg/kg | 1.5 mg/kg | 1000 to 2000 mg/kg | 103% |  |  |  |  | IC50 (5-HT1A receptor; cells marked ^a, 3H-8-OH-DPAT, rat brain striatum membrane): 5.95 nM; affinity for 5-HT1A receptor (in words) (5-HT1A receptor; [4]): relatively stronger affinities; IC50 (5-HT2A receptor; cells marked ^a, [3H]-Ketanserin, rat brain striatum membrane): 0.69 nM; affinity for 5-HT2A receptor (in words) (5-HT2A receptor; [4]): relatively stronger affinities; inhibition at 10 µM (D3 receptor; final concentration 10 μmol/L, [3H]-Spiperone, HEK-293 cells): 101%; affinity for D3 receptor (in words) (D3 receptor; [4]): relatively stronger affinities; affinity for 5-HT2C receptor (in words) (5-HT2C receptor; [4]): lower affinities; inhibition at 10 µM (5-HT2C receptor; read-out: 5HT2C inhibition %): 82%; affinity for D2 receptor (in words) (dopamine D2 receptor; [4]): relatively stronger affinities
Cc1cc(=O)oc2c(Cl)c(OCCCCN3CCC(c4noc5cc(F)ccc45)CC3)ccc12 [Compound 19, 7-(4-(4-(3-(6-fluoro-benzisoxazole)-1-piperidyl)-n-butoxy))-4-methyl-8-chloro-2H-benzopyran-2-one] | 1.33 mg/kg | 1.68 mg/kg | 70.8 mg/kg |  | 27.8% | 104% | significantly improve | effectively improve | did not cause EPS | inhibition at 10 µM (5-HT2A receptor; test compound final concentration 10^−5 M, [3H]-Ketanserin, rat brain striatum membrane): 119%; LD50 (in vivo; KM): > 2000 mg/kg
Cc1cc(=O)oc2c(C)c(OCCCCN3CCC(c4noc5cc(F)ccc45)CC3)ccc12 [Compound 23, 7-(4-(4-(3-(6-fluoro-benzisoxazole)-1-piperidyl)-n-butoxy))-4,8-dimethyl-2H-benzopyran-2-one] | 4.24 mg/kg | 0.21 mg/kg | 46.1 mg/kg | > 2000 mg/kg | 6.9% | 78.5% | significantly improve | effectively improve | did not cause EPS | inhibition at 10 µM (5-HT2A receptor): 78.6%
O=C1CCc2ccc(OCCCCN3CCN(c4cccc(Cl)c4Cl)CC3)cc2N1 [aripiprazole] |  |  |  |  |  |  |  |  |  | LD50 (po, mg/kg) (KM mice [3]): 93 mg/kg
